{"source": "patent US10292962B2", "about": "“Pharmaceutical combination comprising metformin and dihydroquercetin and its use for the treatment of cancer” (RESEARCH INSTITUTE FOR NUTRITION AND AGING CO., LTD., priority 2013, dated 2019)", "key": {"[1]": {"system": "phospho-4E-BP1 (Thr37/Thr46) protein", "experiment": "Relative phospho-4E-BP1 protein amount (ELISA) in AsPC-1, dihydroquercetin single agent (Example 11)", "type": "cell-based, human", "experimental": "To evaluate the dose dependency of dihydroquercetin on the relative phospho-4E-BP1 protein amount, the linear regression analysis was performed. As a result, dose dependency was observed. Then, the Williams' test (one-tailed) was performed between the control group and the single agent treated group. As a result, a significant suppressive action of dihydroquercetin at not less than 0.5 mmol/L on relative phospho-4E-BP1 protein amount was observed."}, "AsPC-1 cells": {"system": "AsPC-1 cells", "experiment": "Proportion of CD44 and CD24 double positive cells (cancer stem cell surface markers) in AsPC-1 by flow cytometry (Example 12)", "type": "cell-based, human", "details": "72 hr, dihydroquercetin 0.3 mmol/L, metformin 15 mmol/L + dihydroquercetin 0.3 mmol/L, or gemcitabine 100 nmol/L, compared with the control group (FIG. 7)", "method": "Each group (N=10) was treated as follows: • (1) Control (vehicle control) group: 1.5% distilled water, 0.3% ethanol and 0.1% DMSO containing medium • (2) Metformin single-treated group: metformin 15 mmol/L • (3) Dihydroquercetin single-treated group: dihydroquercetin 0.3 mmol/L • (4) Metformin-dihydroquercetin combined-treated group: metformin 15 mmol/L+dihydroquercetin 0.3 mmol/L • (5) Gemcitabine single-treated group: gemcitabine 100 nmol/L • (6) Metformin.dihydroquercetin.gemcitabine combined-treated group: metformin 15 mmol/L+dihydroquercetin 0.3 mmol/L+gemcitabine 100 nmol/L\nThe passage-cultured AsPC-1 cells were dissociated with trypsin, and suspended in fresh medium. The cell density of the cell suspension was determined using a hematocytometer and adjusted to 2×10^4 cells/mL. The cells were seeded on 6-well multiwell culture plate (IWAKI) at 3 mL per well, and cultured overnight under the conditions of 37° C., 5% CO2. […] After washing with FACS (fluorescence activated cell sorting) buffer, the cells were stained with FITC-labeled anti-human CD44 antibody and APC-labeled anti-human CD24 antibody, and treated at 4° C. for 30 min. Thereafter, the cells were washed with the FACS buffer, passed through a 40 micron mesh filter, and the proportion of CD44 and CD24 double positive cells was determined using the flow cytometer (Nippon Becton Dickinson and Company, Ltd.). […]"}, "[2]": {"system": "phospho-4E-BP1 (Thr37/Thr46) protein", "experiment": "Relative phospho-4E-BP1 protein amount (ELISA) in human ovarian cancer cell line Caov-3 (Example 8)", "type": "cell-based", "details": "metformin 20 mmol/L, dihydroquercetin 0.2 mmol/L, single or combined, 6 hr, control 21.6", "method": "On the following day after cell seeding, test substances were added and the cells were cultured for 6 hr before harvesting them. The amounts of relative phospho-4E-BP1 protein contained in the prepared whole cell lysates were measured and evaluated. Each group (N=3) was treated as follows: • (1) Control (vehicle control) group: 1% ethanol containing medium • (2) Metformin single-treated group: metformin 20 mmol/L • (3) Dihydroquercetin single-treated group: dihydroquercetin 0.2 mmol/L • (4) Combined-treated group: metformin 20 mmol/L+dihydroquercetin 0.2 mmol/L\nThe passage-cultured Caov-3 cells were dissociated with trypsin, and suspended in fresh medium. The cell density of the cell suspension was determined using a hematocytometer and adjusted to 2.5×10^5 cells/mL. The cells were seeded on 12-well multiwell culture plate at 1 mL per well, and cultured overnight under the conditions of 37° C., 5% CO2. […] Upon centrifugation, the supernatants were sampled, and the amounts of relative phospho-4E-BP1 (Thr37/Thr46) protein in the samples were quantified using ELISA kits in the same manner as in Example 1. The total protein concentrations in the whole cell lysates were measured using BCA protein assay, and the relative phospho-4E-BP1 protein amount of each well was normalized with the total protein amount. […]"}, "[3]": {"system": "phospho-4E-BP1 (Thr37/Thr46) protein", "experiment": "Relative phospho-4E-BP1 protein amount (ELISA) in human bile duct cancer cell line HuH-28 (Example 7)", "type": "cell-based", "details": "metformin 20 mmol/L, dihydroquercetin 0.2 mmol/L, single or combined, 6 hr, control 58.8", "method": "On the following day after cell seeding, test substances were added and the cells were cultured for 6 hr before harvesting them. The amounts of relative phospho-4E-BP1 protein contained in the prepared whole cell lysates were measured and evaluated. Each group (N=3) was treated as follows: • (1) Control (vehicle control) group: 1% ethanol containing medium • (2) Metformin single-treated group: metformin 20 mmol/L • (3) dihydroquercetin single-treated group: dihydroquercetin 0.2 mmol/L • (4) combined-treated group: metformin 20 mmol/L+dihydroquercetin 0.2 mmol/L\nThe passage-cultured HuH-28 cells were dissociated with trypsin, and suspended in the medium. The cell density of the cell suspension was determined using a hematocytometer and adjusted to 2.5×10^5 cells/mL. The cells were seeded on 12-well multiwell culture plate at 1 mL per well, and cultured overnight under the conditions of 37° C., 5% CO2. […] Upon centrifugation, the supernatants were sampled, and the amounts of relative phospho-4E-BP1 (Thr37/Thr46) protein in the samples were quantified using ELISA kits in the same manner as in Example 1. The total protein concentrations in the whole cell lysates were measured using BCA protein assay, and the relative phospho-4E-BP1 protein amount of each well was normalized with the total protein amount. […]"}, "[4]": {"system": "phospho-4E-BP1 (Thr37/Thr46) protein", "experiment": "Relative phospho-4E-BP1 protein amount (ELISA) in human breast cancer cell line MDA-MB-231 (Example 5)", "type": "cell-based", "details": "metformin 5 mmol/L, dihydroquercetin 0.2 mmol/L, single or combined, 6 hr, control 33.3", "method": "(§1) On the following day after cell seeding, test substances were added and the cells were cultured for 6 hr before harvesting them. The amounts of relative phospho-4E-BP1 protein contained in the prepared whole cell lysates were measured and evaluated. Each group (N=3) was treated as follows: • (1) Control (vehicle control) group: 1% ethanol containing medium • (2) Metformin single-treated group: metformin 5 mmol/L • (3) Dihydroquercetin single-treated group: dihydroquercetin 0.2 mmol/L • (4) Combined-treated group: metformin 5 mmol/L+dihydroquercetin 0.2 mmol/L\nThe passage-cultured MDA-MB-231 cells were dissociated with trypsin, and suspended in fresh medium. The cell density of the cell suspension was determined using a hematocytometor and adjusted to 2.5×10^5 cells/mL. The cells were seeded on 12-well multiwell culture plate at 1 mL per well, and cultured overnight under the conditions of 37° C., 5% CO2. […] Upon centrifugation, the supernatants were sampled, and the amounts of relative phospho-4E-BP1 (Thr37/Thr46) protein in the samples were quantified using ELISA kits in the same manner as in Example 1. The concentrations of total protein in the whole cell lysates were measured using BOA protein assay, and the relative phospho-4E-BP1 protein amount of each well was normalized with the total protein amount. […]"}, "[5]": {"system": "phospho-4E-BP1 (Thr37/Thr46) protein", "experiment": "Relative phospho-4E-BP1 protein amount (ELISA) in human prostate cancer cell line 22Rv1 (Example 6)", "type": "cell-based", "details": "metformin 10 mmol/L, dihydroquercetin 0.2 mmol/L, single or combined, 6 hr, control 51.0", "method": "On the following day after cell seeding, test substances were added and the cells were cultured for 6 hr before harvesting them. The amounts of relative phospho-4E-BP1 protein contained in the prepared whole cell lysates were measured and evaluated. Each group (N=3) was treated as follows: • (1) Control (vehicle control) group: 1% ethanol containing medium • (2) Metformin single-treated group: metformin 10 mmol/L • (3) Dihydroquercetin single-treated group: dihydroquercetin 0.2 mmol/L • (4) Combined-treated group: metformin 10 mmol/L+dihydroquercetin 0.2 mmol/L\nThe passage-cultured 22Rv1 cells were dissociated with trypsin, and suspended in fresh medium. The cell density of the cell suspension was determined using a hematocytometer and adjusted to 2.5×10^5 cells/mL. The cells were seeded on 12-well multiwell culture plate at 1 mL per well, and cultured overnight under the conditions of 37° C., 5% CO2. […] Upon centrifugation, the supernatants were sampled, and the amounts of relative phospho-4E-BP1 (Thr37/Thr46) protein in the samples were quantified using ELISA kits in the same manner as in Example 1. The concentrations of total protein in the whole cell lysates were measured using BCA protein assay, and the relative phospho-4E-BP1 protein amount of each well was normalized with the total protein amount. […]"}, "[6]": {"system": "phospho-4E-BP1 (Thr37/Thr46) protein", "experiment": "Relative phospho-4E-BP1 protein amount (ELISA) in human pancreatic cancer cell line AsPC-1, 24 hr (Example 9)", "type": "cell-based", "details": "single or combined", "method": "Each group (N=3) was treated as follows. • (1) Control (vehicle control) group: 1% ethanol containing medium • (2) Metformin single-treated group: metformin 1.5, 3 and 6 mmol/L • (3) Dihydroquercetin-single treated group: dihydroquercetin 0.3 mmol/L • (4) Combined-treated group: metformin 1.5, 3 and 6 mmol/L+dihydroquercetin 0.3 mmol/L\nThe passage-cultured AsPC-1 cells were dissociated with trypsin, and suspended in fresh medium. The cell density of the cell suspension was determined using a hematocytometer and adjusted to 2.5×10^5 cells/mL. The cells were seeded on 12-well multiwell culture plate at 1 mL per well, and cultured overnight under the conditions of 37° C., 5% CO2. On the following day, medium containing metformin or dihydroquercetin or both metformin and dihydroquercetin, at the given concentration, was added into each well. After incubation under the conditions of 37° C., 5% CO2 for 24 hr, the cells in each well were washed twice with D-PBS, and whole cell lysates were prepared using cell lysis buffer. Upon centrifugation, the supernatants were sampled, and the amounts of relative phospho-4E-BP1 (Thr37/Thr46) protein in the samples were quantified using ELISA kits in the same manner as in Example 1. The concentrations of total protein in the whole cell lysates were measured using BCA protein assay, and the relative phospho-4E-BP1 protein amount of each well was normalized with the total protein amount.\nTo evaluate the influence of the combined use on relative phospho-4E-BP1 protein amount, Dunnett test was performed to compare the combined-treated group with each single agent-treated group. […] The differences were considered statistically significant when the p value was less than 0.05."}, "WI-38 cells [7]": {"system": "WI-38 cells", "experiment": "Lactate production in human lung fibroblast cell line WI-38, racemate and optically-active dihydroquercetin (Example 10)", "details": "for Metformin-induced lactate production: dihydroquercetin 1 mmol/L added 1 hr before metformin 20 mmol/L, 6 hr (FIG. 4, FIG. 5); for Lactate production: dihydroquercetin 1 mmol/L single, compared with the control group (FIG. 4, FIG. 5)", "experimental": "On the following day after cell seeding, dihydroquercetin was added and the cells were cultured for 1 hr. Then, metformin was added and the cells were cultured for 6 hr. The conditioned medium was sampled, and the concentration of the lactate contained in the medium was measured and evaluated. Each group (N=3) was treated as follows: • (1) Control (vehicle control) group: 1% ethanol containing medium • (2) Dihydroquercetin single-treated group: dihydroquercetin 1 mmol/L • (3) Metformin single-treated group: metformin 20 mmol/L • (4) Combined-treated group: metformin 20 mmol/L+dihydroquercetin 1 mmol/L\nThe passage-cultured WI-38 cells were dissociated with trypsin, and suspended in fresh medium. The cell density of the cell suspension was determined using a hematocytometer and adjusted to 2.5×10^5 cells/mL. The cells were seeded on 24-well multiwell culture plate (IWAKI) at 0.5 mL per well, and cultured overnight under the conditions of 37° C., 5% CO2. Thereto was added a medium containing a given concentration of dihydroquercetin and the cells were cultured for 1 hr, a medium containing a given concentration of metformin was added and the cells were further cultured for 6 hr. After culture, the culture supernatant from each well was sampled and passed through a filter for molecular weight cut-off 10 kDa to obtain the filtrate. Using the Lactate Assay Kit II (BioVision) catalog no. K627-100, lactate concentration was measured. The cells after sampling of the culture supernatant were washed twice with D-PBS, and cell lysis buffer was added to prepare whole cell lysates. The concentrations of the protein in the whole cell lysates were measured using BCA protein assay, and the lactate concentration of each well was normalized with the protein concentration.\nTo evaluate the influence of dihydroquercetin on the metformin-induced produced lactate content, the Student's t-test was performed for the concentration of lactate in the medium between the control group and the dihydroquercetin single agent treated group, and between the control group and the metformin single agent treated group. In addition, to evaluate an influence of the combination of dihydroquercetin and metformin for normalized produced lactate content, a two-way ANOVA (two-tailed) (factors: group and concentration) was performed between the dihydroquercetin single agent treated group (groups 1 and 2) and the metformin treated group (groups 3 and 4). […] The analysis was performed using SAS software Release 9.3 (SAS Institute Japan). The differences were considered statistically significant when the p value was less than 0.05."}, "WI-38 cells [8]": {"system": "WI-38 cells", "experiment": "Metformin-induced lactate production in human lung fibroblast cell line WI-38 (Example 3)", "type": "cell-based", "details": "dihydroquercetin 1 mmol/L added 1 hr before metformin 20 mmol/L, 6 hr, vs metformin single (FIG. 3)", "experimental": "After the culture, the conditioned medium was sampled, and the concentration of lactate contained in the medium was measured and evaluated.\nMedium containing the given concentration of dihydroquercetin was added to each well and the cells were cultured for 1 hr. […] Using the Lactate Assay Kit II (BioVision) catalog no. K627-100, lactate concentration was measured."}, "[9]": {"system": "phospho-4E-BP1 (Thr37/Thr46) protein", "experiment": "Relative phospho-4E-BP1 protein amount (ELISA) in human liver cancer cell line HuH-7 (Example 4)", "type": "cell-based", "details": "metformin 5 mmol/L, dihydroquercetin 0.2 mmol/L, single or combined, 6 hr, control 84.1", "method": "as §1\nThe passage-cultured HuH-7 cells were dissociated with trypsin, and suspended in fresh medium. The cell density of the cell suspension was determined using a hematocytometer and adjusted to 2.5×10^5 cells/mL. The cells were seeded on 12-well multiwell culture plate at 1 mL per well, and cultured overnight under the conditions of 37° C., 5% CO2. […] Upon centrifugation, the supernatants were sampled, and the amounts of relative phospho-4E-BP1 (Thr37/Thr46) protein in the samples were quantified using ELISA kits in the same manner as in Example 1. The concentrations of the total protein in the whole cell lysates were measured using BCA protein assay, and the relative phospho-4E-BP1 protein amount of each well was normalized with the total protein amount. […]"}, "[10]": {"details": "metformin:dihydroquercetin = 1.5 mmol/L:0.3 mmol/L, control 107.3"}, "[11]": {"details": "metformin:dihydroquercetin = 3 mmol/L:0.3 mmol/L, control 33.5"}, "[12]": {"details": "metformin:dihydroquercetin = 6 mmol/L:0.3 mmol/L, control 107.3"}}, "data": [{"smiles": "O=C1c2c(O)cc(O)cc2OC(c2ccc(O)c(O)c2)C1O", "note": "(racemic) [Dihydroquercetin, dihydroquercetin]", "values": [{"measurement": "Concentration of dihydroquercetin with significant suppressive action on relative phospho-4E-BP1 protein amount", "setting": "[1]; 6 hr, Williams' test vs control group", "result": "not less than 0.5 mmol/L"}, {"measurement": "Relative phospho-4E-BP1 protein amount", "setting": "[1]; dihydroquercetin 0.5 and 1 mmol/L single agent, 6 hr (FIG. 6)", "result": "dose-dependent suppressive effect"}, {"measurement": "Proportion of CD44 and CD24 double positive cells", "setting": "AsPC-1 cells", "result": "significantly decreased"}, {"measurement": "Relative phospho-4E-BP1 protein amount MEAN", "setting": "[2]", "result": 21.0}, {"measurement": "Relative phospho-4E-BP1 protein amount MEAN", "setting": "[3]", "result": 54.2}, {"measurement": "Relative phospho-4E-BP1 protein amount MEAN", "setting": "[4]", "result": 25.9}, {"measurement": "Relative phospho-4E-BP1 protein amount MEAN", "setting": "[5]", "result": 53.1}, {"measurement": "Relative phospho-4E-BP1 protein amount MEAN", "setting": "[6]; [10]", "result": 97.4}, {"measurement": "Relative phospho-4E-BP1 protein amount MEAN", "setting": "[6]; [11]", "result": 37.2}, {"measurement": "Relative phospho-4E-BP1 protein amount MEAN", "setting": "[6]; [12]", "result": 89.7}, {"measurement": "Metformin-induced lactate production", "setting": "WI-38 cells [7]", "result": "significantly suppressed"}, {"measurement": "Lactate production", "setting": "WI-38 cells [7]", "result": "suppressed lactate production"}, {"measurement": "Lactate production induced by metformin", "setting": "WI-38 cells [8]", "result": "significantly suppressed the lactate production induced by metformin"}, {"measurement": "Relative phospho-4E-BP1 protein amount MEAN", "setting": "[9]", "result": 59.7}]}, {"smiles": "Nc1ccn([C@@H]2O[C@H](CO)[C@@H](O)C2(F)F)c(=O)n1", "note": "[Gemcitabine, gemcitabine, reference compound]", "values": [{"measurement": "Proportion of CD44 and CD24 double positive cells", "setting": "AsPC-1 cells", "result": "significantly increased"}]}, {"smiles": "CN(C)C(=N)N=C(N)N", "note": "[Metformin, metformin]", "values": [{"measurement": "Relative phospho-4E-BP1 protein amount MEAN", "setting": "[2]", "result": 22.0}, {"measurement": "Relative phospho-4E-BP1 protein amount MEAN", "setting": "[3]", "result": 55.2}, {"measurement": "Relative phospho-4E-BP1 protein amount MEAN", "setting": "[4]", "result": 37.1}, {"measurement": "Relative phospho-4E-BP1 protein amount MEAN", "setting": "[5]", "result": 57.3}, {"measurement": "Relative phospho-4E-BP1 protein amount MEAN", "setting": "[6]; [10]", "result": 83.1}, {"measurement": "Relative phospho-4E-BP1 protein amount MEAN", "setting": "[6]; [11]", "result": 36.9}, {"measurement": "Relative phospho-4E-BP1 protein amount MEAN", "setting": "[6]; [12]", "result": 83.1}, {"measurement": "Relative phospho-4E-BP1 protein amount MEAN", "setting": "[9]", "result": 61.7}]}, {"smiles": "O=C1c2c(O)cc(O)cc2O[C@H](c2ccc(O)c(O)c2)[C@H]1O", "note": "[optically-active dihydroquercetin, (2R,3R)-dihydroquercetin]", "values": [{"measurement": "Metformin-induced lactate production", "setting": "WI-38 cells [7]", "result": "significantly suppressed"}, {"measurement": "Lactate production", "setting": "WI-38 cells [7]", "result": "suppressed lactate production"}]}]}
